Assay results as given in patent US10227350B2 (Gilead Sciences, Inc., priority 2016, dated 2019).

Molecular target: PI3Kβ (Homo sapiens (Human), UniProt P42338)
Assay: TR-FRET enzymatic activity assay, PI3Kβ
Type: biochemical
Conditions: 2× Km ATP, 2 μM PIP2, 30 minutes at 25° C., read-out: IC50-PIP-Beta
How it was run: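 Purified recombinant heterodimeric PI3Kβ; PIP3 formation read by TR-FRET as competition with fluorescent tracer for GRP-1 PH domain binding. Compounds incubated 30 min at 25 °C.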

PI3Kβ, sequence (P42338 whole entry): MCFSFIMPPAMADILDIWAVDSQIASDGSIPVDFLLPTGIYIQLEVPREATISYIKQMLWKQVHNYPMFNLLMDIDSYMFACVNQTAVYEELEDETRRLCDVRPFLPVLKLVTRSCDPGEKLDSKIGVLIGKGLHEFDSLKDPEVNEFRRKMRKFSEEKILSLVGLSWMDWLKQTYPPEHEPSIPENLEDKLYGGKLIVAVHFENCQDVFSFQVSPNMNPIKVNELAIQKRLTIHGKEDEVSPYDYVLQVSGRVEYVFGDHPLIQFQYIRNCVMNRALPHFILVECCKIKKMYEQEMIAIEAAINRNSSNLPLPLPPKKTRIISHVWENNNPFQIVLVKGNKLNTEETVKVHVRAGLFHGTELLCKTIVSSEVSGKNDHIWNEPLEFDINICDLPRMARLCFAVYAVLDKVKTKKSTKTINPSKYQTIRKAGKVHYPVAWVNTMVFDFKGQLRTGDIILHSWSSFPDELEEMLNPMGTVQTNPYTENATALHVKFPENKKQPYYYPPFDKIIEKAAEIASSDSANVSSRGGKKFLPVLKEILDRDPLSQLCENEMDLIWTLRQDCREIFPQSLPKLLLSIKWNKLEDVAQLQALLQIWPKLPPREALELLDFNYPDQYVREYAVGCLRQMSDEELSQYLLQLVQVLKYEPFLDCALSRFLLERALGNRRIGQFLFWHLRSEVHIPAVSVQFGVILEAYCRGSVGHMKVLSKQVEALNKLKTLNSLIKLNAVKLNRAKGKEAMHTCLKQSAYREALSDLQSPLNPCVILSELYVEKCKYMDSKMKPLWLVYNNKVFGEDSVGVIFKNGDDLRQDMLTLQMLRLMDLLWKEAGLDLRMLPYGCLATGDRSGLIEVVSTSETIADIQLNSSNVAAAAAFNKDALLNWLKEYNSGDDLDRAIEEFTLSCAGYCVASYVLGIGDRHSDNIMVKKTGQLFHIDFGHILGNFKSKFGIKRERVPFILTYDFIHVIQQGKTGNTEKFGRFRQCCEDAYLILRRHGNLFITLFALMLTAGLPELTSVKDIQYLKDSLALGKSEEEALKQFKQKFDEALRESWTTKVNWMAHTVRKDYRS
PI3Kβ, sequence (P27986 whole entry partner): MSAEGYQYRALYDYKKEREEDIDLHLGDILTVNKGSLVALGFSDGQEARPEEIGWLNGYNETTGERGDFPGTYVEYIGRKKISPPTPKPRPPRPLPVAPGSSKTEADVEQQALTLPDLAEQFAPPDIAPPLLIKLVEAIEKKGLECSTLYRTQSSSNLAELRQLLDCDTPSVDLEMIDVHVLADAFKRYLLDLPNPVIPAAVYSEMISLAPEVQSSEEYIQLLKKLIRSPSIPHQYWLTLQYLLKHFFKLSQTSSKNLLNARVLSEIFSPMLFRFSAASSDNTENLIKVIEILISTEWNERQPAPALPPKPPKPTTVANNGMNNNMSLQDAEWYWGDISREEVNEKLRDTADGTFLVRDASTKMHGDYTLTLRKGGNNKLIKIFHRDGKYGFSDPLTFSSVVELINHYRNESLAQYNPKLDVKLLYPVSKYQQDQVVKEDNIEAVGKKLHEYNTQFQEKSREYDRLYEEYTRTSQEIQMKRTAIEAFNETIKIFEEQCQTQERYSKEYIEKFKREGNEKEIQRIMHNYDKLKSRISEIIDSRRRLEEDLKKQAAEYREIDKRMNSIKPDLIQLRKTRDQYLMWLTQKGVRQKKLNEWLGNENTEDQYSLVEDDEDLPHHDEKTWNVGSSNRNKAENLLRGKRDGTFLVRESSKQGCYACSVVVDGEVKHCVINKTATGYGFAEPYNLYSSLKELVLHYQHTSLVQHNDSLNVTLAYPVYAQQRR

Row | Structure (SMILES) | IC50 [nM]
1 | Cc1nc2c(-c3nnc[nH]3)cc(-c3cc(N)ncc3F)cc2n1-c1ccnc2c(F)ccc(F)c12 [Example 76, 4-[3-(5,8-difluoroquinolin-4-yl)-2-methyl-7-(4H-1,2,4-triazol-3-yl)benzimidazol-5-yl]-5-fluoropyridin-2-amine] | 50
2 | Nc1nccc(-c2cc(-c3nnc[nH]3)c3nc(C4CC4)n(-c4ccnc5c(Cl)cccc45)c3c2)c1F [Example 79, 4-[3-(8-chloroquinolin-4-yl)-2-cyclopropyl-7-(4H-1,2,4-triazol-3-yl)benzimidazol-5-yl]-3-fluoropyridin-2-amine] | 8
3 | Nc1nccc(-c2cc(-c3nnc[nH]3)c3nc(C4CC4)n(-c4ccnc5c(F)ccc(F)c45)c3c2)c1F [Example 81, 4-[2-cyclopropyl-3-(5,8-difluoroquinolin-4-yl)-7-(4H-1,2,4-triazol-3-yl)benzimidazol-5-yl]-3-fluoropyridin-2-amine] | 15
4 | CNc1cc(-c2cc(-c3nnc[nH]3)c3nc(C)n(-c4ccnc5c(F)ccc(F)c45)c3c2)c(F)cn1 [Example 82, 4-[3-(5,8-difluoroquinolin-4-yl)-2-methyl-7-(4H-1,2,4-triazol-3-yl)benzimidazol-5-yl]-5-fluoro-N-methylpyridin-2-amine] | 120
5 | Cc1cnc2c(Cl)cccc2c1-n1c(C)nc2c(-c3nnc[nH]3)cc(-c3ccnc(N)c3F)cc21 [Example 89, 4-[3-(8-chloro-3-methylquinolin-4-yl)-2-methyl-7-(4H-1,2,4-triazol-3-yl)benzimidazol-5-yl]-3-fluoropyridin-2-amine] | 3
6 | Cc1cc(-c2cc(-c3nnc[nH]3)c3nc(C)n(-c4ccnc5c(F)ccc(F)c45)c3c2)cc(N)n1 [Example 90, 4-[3-(5,8-difluoroquinolin-4-yl)-2-methyl-7-(4H-1,2,4-triazol-3-yl)benzimidazol-5-yl]-6-methylpyridin-2-amine] | 340
7 | Nc1nccc(-c2cc(-c3nnc[nH]3)c3nc(CC4CC4)n(-c4ccnc5c(F)ccc(F)c45)c3c2)c1F [Example 96, 4-[2-(cyclopropylmethyl)-3-(5,8-difluoroquinolin-4-yl)-7-(4H-1,2,4-triazol-3-yl)benzimidazol-5-yl]-3-fluoropyridin-2-amine] | 7
8 | Cc1nnc(-c2cc(-c3ccnc(N)c3F)cc3c2nc(C)n3-c2ccnc3c(F)ccc(F)c23)[nH]1 [Example 97, 4-[3-(5,8-difluoroquinolin-4-yl)-2-methyl-7-(5-methyl-4H-1,2,4-triazol-3-yl)benzimidazol-5-yl-]3-fluoropyridin-2-amine] | 31
9 | Cc1nnc(-c2cc(-c3ccnc(N)c3F)cc3c2nc(C)n3-c2ccnc3c(Cl)ccc(F)c23)[nH]1 [Example 98, 4-[3-(8-chloro-5-fluoroquinolin-4-yl)-2-methyl-7-(5-methyl-4H-1,2,4-triazol-3-yl)benzimidazol-5-yl]-3-fluoropyridin-2-amine] | 6

Other lines, results leading:

Row | IC50 [nM] | Structure (SMILES)
10 | 1400 | CNc1nccc(-c2cc(-c3nnc[nH]3)c3nc(C)n(-c4ccnc5c(F)ccc(F)c45)c3c2)c1F [Example 77, 4-[3-(5,8-difluoroquinolin-4-yl)-2-methyl-7-(4H-1,2,4-triazol-3-yl)benzimidazol-5-yl]-3-fluoro-N-methylpyridin-2-amine]
11 | 5 | CCCc1nc2c(-c3nnc[nH]3)cc(-c3ccnc(N)c3F)cc2n1-c1ccnc2c(F)ccc(F)c12 [Example 78, 4-[3-(5,8-difluoroquinolin-4-yl)-2-propyl-7-(4H-1,2,4-triazol-3-yl)benzimidazol-5-yl]-3-fluoropyridin-2-amine]
12 | 2 | Cc1nc2c(-c3nnc[nH]3)cc(-c3ccnc(N)c3F)cc2n1-c1ccnc2c(Cl)cccc12 [Example 80, 4-(1-(8-chloroquinolin-4-yl)-2-methyl-4-(4H-1,2,4-triazol-3-yl)-1H-benzo[d]imidazol-6-yl)-3-fluoropyridin-2-amine]
13 | 2 | Cc1nc2c(-c3nnc[nH]3)cc(-c3ccnc(N)c3F)cc2n1-c1ccnc2c(Cl)ccc(F)c12 [Example 83, 4-[3-(8-chloro-5-fluoroquinolin-4-yl)-2-methyl-7-(4H-1,2,4-triazol-3-yl)benzimidazol-5-yl]-3-fluoropyridin-2-amine]
14 | 3 | Nc1nccc(-c2cc(-c3nnc[nH]3)c3nc(C4CC4)n(-c4ccnc5c(Cl)ccc(F)c45)c3c2)c1F [Example 85, 4-[3-(8-chloro-5-fluoroquinolin-4-yl)-2-cyclopropyl-7-(4H-1,2,4-triazol-3-yl)benzimidazol-5-yl]-3-fluoropyridin-2-amine]
15 | 7 | Cc1nc2c(-c3nnc[nH]3)cc(-c3ccnc(N)c3F)cc2n1-c1ccnc2c(F)cccc12 [Example 86, 3-fluoro-4-[3-(8-fluoroquinolin-4-yl)-2-methyl-7-(4H-1,2,4-triazol-3-yl)benzimidazol-5-yl]pyridin-2-amine]
16 | 12 | CCCc1nc2c(-c3nnc[nH]3)cc(-c3ccnc(N)c3F)cc2n1-c1ccnc2c(F)cccc12 [Example 87, 3-fluoro-4-[3-(8-fluoroquinolin-4-yl)-2-propyl-7-(4H-1,2,4-triazol-3-yl)benzimidazol-5-yl]pyridin-2-amine]
17 | 110 | Nc1nccc(-c2cc(-c3nnc[nH]3)c3nc(C4CC4)n(-c4ccnc5c(F)cccc45)c3c2)c1F [Example 88, 4-[2-cyclopropyl-3-(8-fluoroquinolin-4-yl)-7-(4H-1,2,4-triazol-3-yl)benzimidazol-5-yl]-3-fluoropyridin-2-amine]
18 | 19 | Cc1nc2c(-c3nnc[nH]3)cc(-c3ccnc(N)c3Cl)cc2n1-c1ccnc2c(F)ccc(F)c12 [Example 91, 3-chloro-4-[3-(5,8-difluoroquinolin-4-yl)-2-methyl-7-(4H-1,2,4-triazol-3-yl)benzimidazol-5-yl]pyridin-2-amine]
19 | 51 | Cc1nc2c(-c3nnc[nH]3)cc(-c3ccnc(N)c3F)cc2n1-c1c(Cl)cnc2c(F)cccc12 [Example 92, 4-[3-(3-chloro-8-fluoroquinolin-4-yl)-2-methyl-7-(4H-1,2,4-triazol-3-yl)benzimidazol-5-yl]-3-fluoropyridin-2-amine]
20 | 5 | Cc1nc2c(-c3nnc[nH]3)cc(-c3ccnc(N)c3F)cc2n1-c1ccnc2cccc(F)c12 [Example 93, 3-fluoro-4-[3-(5-fluoroquinolin-4-yl)-2-methyl-7-(4H-1,2,4-triazol-3-yl)benzimidazol-5-yl]pyridin-2-amine]
21 | 8 | CCc1nc2c(-c3nnc[nH]3)cc(-c3ccnc(N)c3F)cc2n1-c1ccnc2cccc(F)c12 [Example 94, 4-[2-ethyl-3-(5-fluoroquinolin-4-yl)-7-(4H-1,2,4-triazol-3-yl)benzimidazol-5-yl]-3-fluoropyridin-2-amine]
22 | 5 | CCc1nc2c(-c3nnc[nH]3)cc(-c3ccnc(N)c3F)cc2n1-c1ccnc2c(F)ccc(F)c12 [Example 95, 4-[3-(5,8-difluoroquinolin-4-yl)-2-ethyl-7-(4H-1,2,4-triazol-3-yl)benzimidazol-5-yl]-3-fluoropyridin-2-amine]
23 | 29 | Cc1nc2c(-c3nnc[nH]3)cc(-c3ccnc(N)c3F)cc2n1-c1ccnc2c(F)ccc(Cl)c12 [Example 99, 4-[3-(5-chloro-8-fluoroquinolin-4-yl)-2-methyl-7-(4H-1,2,4-triazol-3-yl)benzimidazol-5-yl]-3-fluoropyridin-2-amine]
